≈ marks a conversion by molar mass, not a printed value.
Experiments:
[1] = cited from earlier work
[2] = Solubility of active ingredient; assay type: physicochemical
From the text: Formulations of water dispersible granules comprising microcapsules encapsulating active ingredients with higher water solubilities: • a. […] When attempting to prepare water dispersible granules comprising microcapsules of Thiamethoxam as per an embodiment of this invention, it was observed that Thiamethoxam was not soluble in the solvent C-9. It is observed that thiamethoxam decomposed immediately beyond its melting point. On attempting to add methylene diphenyl diisocyanate (MDI) in molten Thiamethoxam, it polymerized immediately due to high temperature. Thus Thiamethoxam could not be microencapsulated and it was not possible to prepare its water dispersible granular formulation. • b. […] A water dispersible granular composition comprising microcapsules of 25% Propoxur within a polyurea shell wall with Gohensol GL-03 was made, according to an embodiment of the invention, including maltodextrin as a water soluble suspension adjuvant in the filler base, along with clay, sodium lignosulfonate and alkyl naphthalene sulfonate (Supragil WP). The suspensibility observed was 85%. A water dispersible granule composition comprising microcapsules of 25% Propoxur was prepared with the microcapsules having a polyurea shell wall and polyvinyl alcohol Gohensol GL-03. […]

Question: With `CNC(=O)Oc1ccccc1OC(C)C` [Propoxur] as the compound, how does the solubility in water [1] read?
Answer: The solubility in water was 1800 µg/mL (≈ 8.6 mM).

Question: With `CN1COCN(Cc2cnc(Cl)s2)/C1=N\[N+](=O)[O-]` [Thiamethoxam] as the compound, how does the “solubility in the solvent C-9” value [2] read?
Answer: Its value is “not soluble”.

— patent US9648872B2, “Water dispersible granule composition” (priority 2014, dated 2017)
